# Measurements from patent publication US10316041B2, “Spiro-lactam NMDA receptor modulators and uses thereof” (Apytinyx Inc., priority 2013, dated 2019).
# Where two headings read alike, the source gives them in different places.
# Key:
# [1] = biological target: T1, NMDA receptor (rat cortical membranes) (Rattus norvegicus, UniProt P35439); test: [3H]MK-801 binding assay (potentiation of binding); settings: for Activity (%): maximal activity, % maximal stimulation (1 mM glycine)
# T1 construct: from tissue; host or cells: rat cerebral cortex membranes
# Procedure: Assays were conducted as described in Moskal et al. (Moskal, J. R., Kuo, A. G., Weiss, C., Wood, P. L., O'Connor Hanson, A., Kelso, S., Harris, R. B., Disterhoft, J. F., 2005. GLYX-13: a monoclonal antibody-derived peptide that acts as an N-methyl-D-aspartate receptor modulator. Neuropharmacology. 49, 1077-87) The potentiation of [^3H]MK-801 binding (5 nM; 22.5 Ci/mmol) to well washed rat cortical membranes (200 μg) was measured under non-equilibrium conditions (15 min @ 25° C.) in the presence of increasing concentrations of test compounds and 50 μM glutamate. Zero levels were determined in the absence of any glycine ligand and in the presence of 30 μM 5.7 DCKA. Maximal stimulation was measured in the presence of 1 mM glycine, and 50 μM glutamate was present in all samples. The facilitation of [^3H]MK-801 binding by tests compounds was calculated by using a 3 parameter log agonist vs. response equation (Graph pad Prism, USA) and potency (EC50 expressed in pM) and maximal activity (% maximal stimulation) were calculated for the test compound.
# [2] = tested on: Schaffer collateral-CA1 synapses in hippocampal slices; test: Long term potentiation in hippocampal slices; type: cell-based, rat
# Procedure: Assays were conducted as described in Zhang et al. (Zhang, X. L., Sullivan, J. A., Moskal, J. R., Stanton, P. K., 2008. A NMDA receptor glycine site partial agonist, GLYX-13, simultaneously enhances LTP and reduces LTD at Schaffer collateral-CA1 synapses in hippocampus. Neuropharmacology. 55, 1238-50) Sprague-Dawley rats (12-18 days old; Taconic Farms) were deeply anesthetized with isoflurane and decapitated. Rat brains were removed rapidly, submerged in ice-cold artificial cerebrospinal fluid (ACSF, 2-4° C.), which contained (in mM): 124 NaCl, 4 KCl, 2 MgSO4, 2 CaCl2, 1.25 NaH2PO4, 26 NaHCO3, 10 glucose; at pH 7.4, gassed continuously with 95% O2/5% CO2). The rat brains were hemisected, the frontal lobes cut off, and individual hemispheres glued using cyanoacrylate adhesive onto a stage immersed in ice-cold ACSF gassed continuously with 95% O2/5% CO2 during slicing. Coronal slices (400 μm thick) were cut using a Vibratome (Leica VT1200S), and transferred to an interface holding chamber for incubation at room temperature for a minimum of one hour before transferring to a Haas-style interface recording chamber continuously perfused at 3 ml/min with oxygenated ACSF at 32±0.5° C. […] A bipolar stainless steel stimulating electrode (FHC Co.) was placed on Schaffer collateral-commissural fibers in CA3 stratum radiatum, and constant current stimulus intensity adjusted to evoke approximately half-maximal fEPSPs once each 30 s ([…]; 100 μs duration). fEPSP slope was measured before and after induction of LTP by linear interpolation from 20 to 80% of maximum negative deflection, and slopes confirmed to be stable to within ±10% for at least 15 min before commencing an experiment. […] The signals were recorded using a Multiclamp 700B amplifier and digitized with a Digidata 1322 (Axon Instruments, USA). Data were analyzed using pClamp software (version 9, Axon Instruments) on an IBM-compatible personal computer.
# [3] = Porsolt test (floating time); type: in vivo; settings: 3 mg/kg, IV, 1 hour post dose
# [4] = potentiation of [3H]MK-801 binding, 50 μM glutamate, rat cortical membranes, read-out: pEC50 (converted)
# [5] = read-out: [3H] MK-801 binding assay: EC50
Activity (%) [1],"EC50 [1, 4]","EC50 [1, 5]",Compound,other results
20%,0.195 nM,,"CC(=O)N1CCCC12CN(CC(=O)N[C@H](C(N)=O)[C@@H](C)O)C2=O (stereo partly drawn) [Compound H, (2S,3R)-2-(2-(5-acetyl-1-oxo-2,5-diazaspiro[3.4]octan-2-yl)acetamido)-3-hydroxy butanamide]",
,,1690 nM,"CC(=O)O[C@H](C)[C@H](NC(=O)CN1CC2(CCCN2)C1=O)C(N)=O (stereo partly drawn) [Compound 6S-FNL-3, (2R, 3S)-4-amino-4-oxo-3-(2-(1-oxo-2,5-diazaspiro [3.4]octan-2-yl)acetamido) butan-2-yl acetate]",
5%,0.159 nM,,"C[C@@H](O)[C@H](NC(=O)CN1CC2(CCCN2C(=O)c2ncnn2C)C1=O)C(=O)N1CCCC1 (stereo partly drawn) [Compound D, N-((2S, 3R)-3-hydroxy-1-oxo-1-(pyrrolidin-1-yl)butan-2-yl)-2-(5-(1-methyl-1H-1,2,4-triazole-5-carbonyl)-1-oxo-2,5-diazaspiro[3.4]octan-2-yl) acetamide]",
,,> 10000 nM,"C[C@@H](O)[C@H](NC(=O)CN1CC2(CCCN2C(=O)OCc2ccccc2)C1=O)C(N)=O (stereo in doubt) [Compound 6S-FNL-4, Benzyl 2-(2-((1-amino-3-hydroxy-1-oxobutan-2-yl)amino)-2-oxoethyl)-1-oxo-2,5-diazaspiro [3.4] octane-5-carboxylate]",
,,,"CC(=O)N1CCCC12CN(CC(=O)N[C@H](C(N)=O)[C@@H](C)O)C2=O (single isomer, unassigned) [Compound 6S-FNL-7-F2]",Unified Activity Data: LTP Augmentation (Percent) ([2]; LTP Concentration 1 uM): 150%; Unified Activity Data: Porsolt Floating Time Inhibition (Percent) [3]: 80%
10%,0.007 nM,,"C[C@@H](O)[C@H](NC(=O)CN1CC2(CCCN2C(=O)c2ncnn2C)C1=O)C(N)=O (stereo partly drawn) [Compound C, (2S,3R)-3-hydroxy-2-(2-(5-(1-methyl-1H-1,2,4-triazole-5-carbonyl)-1-oxo-2,5-diazaspiro[3.4]octan-2-yl)acetamido) butanamide]",

Compound,Activity (%) [1],"EC50 [1, 4]","EC50 [1, 5]",other results
"(2R, 3S)-4-amino-3-(2-(5-(1-benzyl-5-methyl-1H-1, 2, 3-triazole-4-carbonyl)-1-oxo-2, 5-diazaspiro [3.4] octan-2-yl) acetamido)-4-oxobutan-2-yl acetate [Compound B]",47%,0.006 nM,0.00727 nM,"Unified Activity Data: LTP Augmentation (Percent) ([2]; LTP Concentration 0.1 uM): 110%; long-term potentiation after high frequency stimulation of Schaffer collateral-evoked NMDA e.p.s.c.s in CA1 pyramidal neurons ([2]; tested at 0.11 μM, FIG. 5): increased long-term potentiation; Unified Activity Data: Porsolt Floating Time Inhibition (Percent) [3]: 86%"
